Results on three compounds are retold here after patent US12565476B2, “2,5-disubstituted 3-methyl pyrazines and 2,5,6-trisubstituted 3-methyl pyrazines as allosteric SHP2 inhibitors” (Revolution Medicines, Inc., priority 2016, dated 2026).

In this experiment the target is SHP2 (Homo sapiens (Human), UniProt Q06124). Nature of the experiment: SHP2 allosteric inhibition assay (DiFMUP prompt fluorescence). Format: biochemical. Conditions: 0.2 nM SHP2 incubated with 0.5 μM Activating Peptide 1 or 2, surrogate substrate DiFMUP, compound 0.00005-10 μM. The text has this: Without wishing to be bound by theory, SHP is allosterically activated through binding of bis-tyrosyl-phosphorylated peptides to its Src Homology 2 (SH2) domains. The latter activation step leads to the release of the auto-inhibitory interface of SHP2, which in turn renders the SHP2 protein tyrosine phosphatase (PTP) active and available for substrate recognition and reaction catalysis. The catalytic activity of SHP2 was monitored using the surrogate substrate DiFMUP in a prompt fluorescence assay format.
SHP2, sequence (Q06124 whole entry): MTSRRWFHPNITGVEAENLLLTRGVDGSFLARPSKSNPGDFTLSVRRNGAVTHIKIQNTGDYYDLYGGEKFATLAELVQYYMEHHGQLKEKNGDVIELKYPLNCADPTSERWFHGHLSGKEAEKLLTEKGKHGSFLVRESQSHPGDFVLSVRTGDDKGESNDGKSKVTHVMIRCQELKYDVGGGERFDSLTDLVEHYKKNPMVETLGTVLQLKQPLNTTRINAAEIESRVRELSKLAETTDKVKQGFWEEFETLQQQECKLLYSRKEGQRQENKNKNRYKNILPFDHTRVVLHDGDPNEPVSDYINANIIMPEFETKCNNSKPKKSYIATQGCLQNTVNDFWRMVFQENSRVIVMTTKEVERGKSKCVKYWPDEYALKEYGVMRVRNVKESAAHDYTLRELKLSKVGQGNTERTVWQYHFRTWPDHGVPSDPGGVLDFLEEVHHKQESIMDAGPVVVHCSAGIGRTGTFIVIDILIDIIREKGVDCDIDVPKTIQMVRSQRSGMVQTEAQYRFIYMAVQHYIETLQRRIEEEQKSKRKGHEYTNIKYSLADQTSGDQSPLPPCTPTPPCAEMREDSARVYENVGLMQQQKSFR
After 30-60-minutes incubation at 25° C., the surrogate substrate DiFMUP (Invitrogen, Cat #D6567) was added to the reaction and activity was determined by a kinetic read using a microplate reader (Envision, Perkin-Elmer or Spectramax M5, Molecular Devices). The excitation and emission wavelengths were 340 nm and 450 nm, respectively. Initial rates were determined from a linear fit of the data, and the inhibitor dose response curves were analyzed using normalized IC50 regression curve fitting with control based normalization.
Regarding `Cc1nc(N2CCC(C)(N)CC2)cnc1-c1cccc(Cl)c1Cl` [Example 24, 1-(5-(2,3-dichlorophenyl)-6-methylpyrazin-2-yl)-4-methylpiperidin-4-amine], the IC50 (commonly the concentration at which inhibition is half-maximal) worked out at 104 nM. Take `Cc1nc(N2CCC3(CCC[C@H]3N)CC2)cnc1Sc1cccc(Cl)c1Cl` [Example 1, (R)-8-(5-((2,3-dichlorophenyl)thio)-6-methylpyrazin-2-yl)-8-azaspiro[4.5]decan-1-amine]: inhibition was half-maximal at 83 nM (IC50).

`Cc1nc(N2CCC3(CCC[C@H]3N)CC2)cnc1-c1cccc(Cl)c1Cl` [Example 23, (R)-8-(5-(2,3-dichlorophenyl)-6-methylpyrazin-2-yl)-8-azaspiro[4.5]decan-1-amine] gave an IC50 of 43 nM.
